In publication PMC12320299 (Chemical Science, 2025):

Test system: SW480 cancer cells
Assay: Proteome profiling of compound-treated SW480 cancer cells (24 h, approx. IC50, CYT and NE fractions)
Assay type: cell-based, human
Experimental: To gain insight into potential modes of action and derive structure–activity relationships on a molecular level, proteomic profiling experiments were carried out based on label-free quantification (LFQ) by nano-liquid chromatography tandem mass spectrometry (nLC-MS/MS). […] Six replicates were used per condition. The perturbations were evaluated at subcellular resolution by fractionating cells into cytoplasmic (CYT) and nuclear (NE) protein fractions. Those have been separately proteolytically digested and analysed (Fig. 3A). The perturbations with the 3-Et-NQ and 3-Morph-NQ complexes were performed against their respective solvent-treated controls (CON), yielding a total of 72 samples. […] Statistical significance of individual protein regulations was calculated by multiple testing-corrected P-values based on 5% false discovery rate (FDR = 0.05 and S0 = 0.1).
The position of each group represents the summed fold-changes of the individual proteins in the group according to the subcellular space, i.e., CYT and NE fractions, while the size represents the number of proteins in each group. […]
Proteome profiling of compound-treated SW480 cancer cells […]
cells per well and left to adhere in complete cell culture medium. After 24 h, the medium was exchanged with fresh complete medium (DMSO mock control) or fresh medium containing […]
solution in DMSO, respectively) and incubated for another 24 h. Each condition was carried out in hexuplicates. The cells were processed according to a nucleocytoplasmic fractionation protocol as previously described.3 All steps were performed on ice. The medium was removed, and the cells were washed twice with 1×PBS (phosphate buffered saline, 3 mL). Then, PBS was thoroughly removed. Isotonic lysis buffer (10 mM HEPES, 10 mM NaCl, 3.5 mM MgCl2, 1 mM EGTA, 0.25 M Sucrose, 0.5% Triton X-100) containing protease inhibitors (1% PMSF, Sigma, and 1% protease and phosphatase inhibitor cocktail, Roche) was added to the flasks, the cells were scraped off and transferred into labelled 15 mL Falcon tubes. The cellular membrane was ruptured using shear stress by pressing the cell suspension through a syringe 9–12 times. Membrane rupture with intact nuclei was monitored under a microscope. After centrifugation (960 g, 5 min), the supernatant containing the cytoplasmic (CYT) proteins was transferred into new tubes containing ice-cold ethanol (1 : 5, HPLC grade) and precipitated […]
overnight at –20 °C. The pellet containing the nuclei was incubated with a hypertonic solution (10 mM Tris-HCl, 1 mM EDTA and 0.5 M NaCl) and subsequently diluted 1:10 with NP-40 buffer (10 mm Tris-HCl, 1 mm EDTA and 0.5% Triton X-100) containing protease inhibitors (1% PMSF, Sigma, and 1% protease and phosphatase inhibitor cocktail, Roche). After centrifugation (960 g, 5 min), the soluble nuclear (NE) proteins were also transferred into new tubes containing ice-cold ethanol (1 : 5, HPLC grade) and precipitated overnight at –20 °C.
The precipitated proteins were finally pelleted by centrifugation (5000 g, 30 min, 4 °C), the solution was decanted and the pellet dried under vacuum.

[1] = cytoplasmic fraction, FDR = 0.05, S0 = 0.1
[2] = nuclear fraction, FDR = 0.05, S0 = 0.1

Cc1ccc(C(C)C)cc1.O=C1C(CN2CCOCC2)=C2[O][Ru][O]C2(n2cccn2)c2ccccc21 (stereo not shown) [Compound 1b]
N° significantly regulated proteins, Total (CYT and NE): 1498
GO BP Cell cycle, summed fold-changes (CYT fraction): -2.0
GO BP Cell division, summed fold-changes (CYT fraction): 1.8
GO BP Chromatin organization, summed fold-changes (CYT fraction): -9.6
GO BP DNA damage response, summed fold-changes (CYT fraction): -1.3
GO BP DNA repair, summed fold-changes (CYT fraction): -5.7
GO BP DNA replication, summed fold-changes (CYT fraction): -0.75
GO BP Intracellular protein transport, summed fold-changes (CYT fraction): -1.2
GO BP Mitotic cytokinesis, summed fold-changes (CYT fraction): 0.635
GO BP Negative regulation of DNA-templated transcription, summed fold-changes (CYT fraction): -4.7
GO BP Nucleocytoplasmic transport, summed fold-changes (CYT fraction): 0.157
GO BP Positive regulation of DNA-templated transcription, summed fold-changes (CYT fraction): -4.1
GO BP Proteasome-mediated ubiquitin-dependent protein catabolic process, summed fold-changes (CYT fraction): 0.556
GO BP Protein folding, summed fold-changes (CYT fraction): 0.665
GO BP Protein stabilization, summed fold-changes (CYT fraction): 1.4
GO BP Protein transport, summed fold-changes (CYT fraction): -4.1
GO BP Purine nucleotide biosynthetic process, summed fold-changes (CYT fraction): -1.4
GO BP RNA splicing, summed fold-changes (CYT fraction): 2.7
GO BP Regulation of apoptotic process, summed fold-changes (CYT fraction): -0.9
GO BP Regulation of cell fate specification, summed fold-changes (CYT fraction): -2.6
GO BP Regulation of double-strand break repair, summed fold-changes (CYT fraction): -0.5
GO BP Regulation of stem cell differentiation, summed fold-changes (CYT fraction): -2.1
GO BP Response to oxidative stress, summed fold-changes (CYT fraction): -2.8
GO BP Ribosomal small subunit biogenesis, summed fold-changes (CYT fraction): 3.8
GO BP Ribosome biogenesis, summed fold-changes (CYT fraction): 1.0
GO BP Ubiquitin-dependent protein catabolic process, summed fold-changes (CYT fraction): -4.3
GO BP Vesicle-mediated transport, summed fold-changes (CYT fraction): -2.0
GO BP mRNA processing, summed fold-changes (CYT fraction): 2.8
GO BP mRNA splicing, via spliceosome, summed fold-changes (CYT fraction): 5.8
GO BP mRNA transport, summed fold-changes (CYT fraction): 3.1
GO BP rRNA processing, summed fold-changes (CYT fraction): 6.9
GO CC Azurophil granule lumen, summed fold-changes (CYT fraction): -3.8
GO CC Chromatin, summed fold-changes (CYT fraction): -3.8
GO CC Chromosome, centromeric region, summed fold-changes (CYT fraction): 2.2
GO CC Chromosome, summed fold-changes (CYT fraction): 0.0303
GO CC Chromosome, telomeric region, summed fold-changes (CYT fraction): -5.4
GO CC Condensin complex, summed fold-changes (CYT fraction): 1.7
GO CC Cytoskeleton, summed fold-changes (CYT fraction): 2.2
GO CC Endosome, summed fold-changes (CYT fraction): -2.0
GO CC Extracellular exosome, summed fold-changes (CYT fraction): -48.5
GO CC Fibrillar center, summed fold-changes (CYT fraction): 1.3
GO CC Ficolin-1-rich granule lumen, summed fold-changes (CYT fraction): -4.9
GO CC Focal adhesion, summed fold-changes (CYT fraction): -5.9
GO CC Intracellular membrane-bounded organelle, summed fold-changes (CYT fraction): -2.0
GO CC Kinetochore, summed fold-changes (CYT fraction): 1.6
GO CC Lipid droplet, summed fold-changes (CYT fraction): -1.3
GO CC Lysosome, summed fold-changes (CYT fraction): -2.9
GO CC Microtubule cytoskeleton, summed fold-changes (CYT fraction): 1.6
GO CC Mitochondrion, summed fold-changes (CYT fraction): -13.5
GO CC Nuclear envelope, summed fold-changes (CYT fraction): -0.6
GO CC Nuclear speck, summed fold-changes (CYT fraction): 3.4
GO CC Nucleolus, summed fold-changes (CYT fraction): 1.4
GO CC Nucleoplasm, summed fold-changes (CYT fraction): -8.6
GO CC Nucleus, summed fold-changes (CYT fraction): -23.5
GO CC Proteasome complex, summed fold-changes (CYT fraction): 0.475
GO CC Protein-containing complex, summed fold-changes (CYT fraction): -2.9
GO CC Ribonucleoprotein complex, summed fold-changes (CYT fraction): 3.1
GO CC SCAR complex, summed fold-changes (CYT fraction): 0.9
GO CC Small-subunit processome, summed fold-changes (CYT fraction): 4.9
GO CC Spliceosomal complex, summed fold-changes (CYT fraction): 2.7
GO CC Transcription repressor complex, summed fold-changes (CYT fraction): -2.7
GO CC Vesicle, summed fold-changes (CYT fraction): -2.7
KEGG pathway ATP-dependent chromatin remodeling, summed fold-changes (CYT fraction): -1.8
KEGG pathway Apoptosis, summed fold-changes (CYT fraction): 2.5
KEGG pathway Basal transcription factors, summed fold-changes (CYT fraction): -1.0
KEGG pathway Biosynthesis of amino acids, summed fold-changes (CYT fraction): -5.4
KEGG pathway Biosynthesis of cofactors, summed fold-changes (CYT fraction): 2.8
KEGG pathway Cell cycle, summed fold-changes (CYT fraction): -3.3
KEGG pathway Nucleocytoplasmic transport, summed fold-changes (CYT fraction): 0.8
KEGG pathway Polycomb repressive complex, summed fold-changes (CYT fraction): -2.9
KEGG pathway Proteasome, summed fold-changes (CYT fraction): -0.152
KEGG pathway Ribosome biogenesis in eukaryotes, summed fold-changes (CYT fraction): 1.9
GO BP Cell cycle, summed fold-changes (NE fraction): 26.1
GO BP Cell division, summed fold-changes (NE fraction): 26.9
GO BP Chromatin organization, summed fold-changes (NE fraction): 28.0
GO BP DNA damage response, summed fold-changes (NE fraction): 22.6
GO BP DNA repair, summed fold-changes (NE fraction): 35.2
GO BP DNA replication, summed fold-changes (NE fraction): 6.1
GO BP Intracellular protein transport, summed fold-changes (NE fraction): -31.2
GO BP Mitotic cytokinesis, summed fold-changes (NE fraction): 4.0
GO BP Negative regulation of DNA-templated transcription, summed fold-changes (NE fraction): 65.6
GO BP Nucleocytoplasmic transport, summed fold-changes (NE fraction): 26.1
GO BP Positive regulation of DNA-templated transcription, summed fold-changes (NE fraction): 71.8
GO BP Proteasome-mediated ubiquitin-dependent protein catabolic process, summed fold-changes (NE fraction): 26.0
GO BP Protein folding, summed fold-changes (NE fraction): -27.7
GO BP Protein stabilization, summed fold-changes (NE fraction): -4.7
GO BP Protein transport, summed fold-changes (NE fraction): -9.8
GO BP Purine nucleotide biosynthetic process, summed fold-changes (NE fraction): -7.4
GO BP RNA splicing, summed fold-changes (NE fraction): 29.0
GO BP Regulation of apoptotic process, summed fold-changes (NE fraction): 4.6
GO BP Regulation of cell fate specification, summed fold-changes (NE fraction): 10.8
GO BP Regulation of double-strand break repair, summed fold-changes (NE fraction): 14.0
GO BP Regulation of stem cell differentiation, summed fold-changes (NE fraction): 12.8
GO BP Response to oxidative stress, summed fold-changes (NE fraction): -22.0
GO BP Ribosomal small subunit biogenesis, summed fold-changes (NE fraction): 25.3
GO BP Ribosome biogenesis, summed fold-changes (NE fraction): 6.9
GO BP Ubiquitin-dependent protein catabolic process, summed fold-changes (NE fraction): 4.9
GO BP Vesicle-mediated transport, summed fold-changes (NE fraction): -26.9
GO BP mRNA processing, summed fold-changes (NE fraction): 25.4
GO BP mRNA splicing, via spliceosome, summed fold-changes (NE fraction): 37.9
GO BP mRNA transport, summed fold-changes (NE fraction): 17.5
GO BP rRNA processing, summed fold-changes (NE fraction): 40.4
GO CC Azurophil granule lumen, summed fold-changes (NE fraction): -24.9
GO CC Chromatin, summed fold-changes (NE fraction): 92.4
GO CC Chromosome, centromeric region, summed fold-changes (NE fraction): 9.3
GO CC Chromosome, summed fold-changes (NE fraction): 28.8
GO CC Chromosome, telomeric region, summed fold-changes (NE fraction): 30.4
GO CC Condensin complex, summed fold-changes (NE fraction): 1.4
GO CC Cytoskeleton, summed fold-changes (NE fraction): -23.7
GO CC Endosome, summed fold-changes (NE fraction): -21.5
GO CC Extracellular exosome, summed fold-changes (NE fraction): -325.4
GO CC Fibrillar center, summed fold-changes (NE fraction): 22.1
GO CC Ficolin-1-rich granule lumen, summed fold-changes (NE fraction): -29.3
GO CC Focal adhesion, summed fold-changes (NE fraction): -55.9
GO CC Intracellular membrane-bounded organelle, summed fold-changes (NE fraction): -21.7
GO CC Kinetochore, summed fold-changes (NE fraction): 23.6
GO CC Lipid droplet, summed fold-changes (NE fraction): -14.4
GO CC Lysosome, summed fold-changes (NE fraction): -44.7
GO CC Microtubule cytoskeleton, summed fold-changes (NE fraction): -18.2
GO CC Mitochondrion, summed fold-changes (NE fraction): -134.2
GO CC Nuclear envelope, summed fold-changes (NE fraction): 21.5
GO CC Nuclear speck, summed fold-changes (NE fraction): 55.6
GO CC Nucleolus, summed fold-changes (NE fraction): 104.6
GO CC Nucleoplasm, summed fold-changes (NE fraction): 270.4
GO CC Nucleus, summed fold-changes (NE fraction): 135.2
GO CC Proteasome complex, summed fold-changes (NE fraction): 12.2
GO CC Protein-containing complex, summed fold-changes (NE fraction): -21.9
GO CC Ribonucleoprotein complex, summed fold-changes (NE fraction): 3.5
GO CC SCAR complex, summed fold-changes (NE fraction): -6.0
GO CC Small-subunit processome, summed fold-changes (NE fraction): 29.5
GO CC Spliceosomal complex, summed fold-changes (NE fraction): 22.0
GO CC Transcription repressor complex, summed fold-changes (NE fraction): 12.8
GO CC Vesicle, summed fold-changes (NE fraction): -24.1
KEGG pathway ATP-dependent chromatin remodeling, summed fold-changes (NE fraction): 35.8
KEGG pathway Apoptosis, summed fold-changes (NE fraction): -20.6
KEGG pathway Basal transcription factors, summed fold-changes (NE fraction): 10.6
KEGG pathway Biosynthesis of amino acids, summed fold-changes (NE fraction): -32.4
KEGG pathway Biosynthesis of cofactors, summed fold-changes (NE fraction): -31.7
KEGG pathway Cell cycle, summed fold-changes (NE fraction): 19.2
KEGG pathway Nucleocytoplasmic transport, summed fold-changes (NE fraction): 34.5
KEGG pathway Polycomb repressive complex, summed fold-changes (NE fraction): 17.0
KEGG pathway Proteasome, summed fold-changes (NE fraction): 16.8
KEGG pathway Ribosome biogenesis in eukaryotes, summed fold-changes (NE fraction): 28.9
N° proteins down-regulated, CYT [1]: 8
N° proteins upregulated, CYT [1]: 8
N° proteins down-regulated, NE [2]: 772
N° proteins upregulated, NE [2]: 710
regulated proteins in CYT (up- and down-regulated): 16
